Counter-ions that a name gives are not always drawn.

The test system of one assay is T1, 1N4R p-tau.
T1 construct: made in house; host or cells: E. coli (PIMAX system)
Nature of the assay: p-tau aggregation modulator screen of 1280-compound library (ThS fluorescence net change over 16 h).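 For ThS net change: 30 µM compound with 6 µM p-tau over 16 h.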 The assay is classed as biochemical. On the set-up: key to PTAI>3SD: *: PTAI>3SD.
Settings: not given
Molecule `O=C(O)COCCN1CCN(C(c2ccccc2)c2ccc(Cl)cc2)CC1` (stereo not shown) [Cetirizine dihydrochloride] came in with a ThS net change of 373.

`O=C(O)c1cn(C2CC2)c2cc(N3CCNCC3)c(F)cc2c1=O` [Ciprofloxacin hydrochloride monohydrate] yielded a ThS net change of 361.

In turn, `O=C([O-])[C@H]1/C(=C/CO)O[C@@H]2CC(=O)N21.[K+]` [Clavulanate potassium salt] had a ThS net change of 431.

The assay is the same for the next values; noted with them: 1280-compound library screen; ThS fluorescence net change over 16 h.
Molecule `CCN(CC)C(=O)Nc1ccc(OCC(O)CNC(C)(C)C)c(C(C)=O)c1` (stereo not shown) [Celiprolol HCl] came in with a ThS net change of 396.

As to `C[C@H](CCC(=O)O)[C@H]1CC[C@H]2[C@@H]3[C@H](O)C[C@@H]4C[C@H](O)CC[C@]4(C)[C@H]3CC[C@]12C` [Chenodiol], the ThS net change worked out at 394.

On to `CC(=O)O[C@]1(C(C)=O)CC[C@H]2[C@@H]3C=C(Cl)C4=CC(=O)CC[C@]4(C)[C@H]3CC[C@@]21C` [Chlormadinone acetate], for which the ThS net change is 385.

As to `CN(C)CC/C=C1/c2ccccc2Sc2ccc(Cl)cc21` [Chlorprothixene hydrochloride], the ThS net change is reported as 392.

In turn, `NS(=O)(=O)c1cc(C2(O)NC(=O)c3ccccc32)ccc1Cl` (stereo not shown) [Chlorthalidone] registered a ThS net change of 382.

`O=C1CCc2cc(OCCCCc3nnnn3C3CCCCC3)ccc2N1` [Cilostazol] came in with a ThS net change of 397.

In turn, `COc1cc(N)c(Cl)cc1C(=O)NC1CCN(CCCOc2ccc(F)cc2)CC1OC` (stereo not shown) [Cisapride] showed a ThS net change of 397.

Take `Nc1nc(Cl)nc2c1ncn2[C@H]1C[C@H](O)[C@@H](CO)O1` [Cladribine]: the ThS net change was 399.

As to `COc1cc(N)c(Cl)cc1C(=O)NC1CCN(Cc2ccccc2)CC1` [Clebopride maleate], the ThS net change came to 406.

On to `C[N+]12CCC(CC1)C(OC(=O)C(O)(c1ccccc1)c1ccccc1)C2` (stereo not shown) [Clidinium bromide], for which the ThS net change is 389.

The assay is the same for the next values; noted with them: 1280-compound library screen; […].
Molecule `CC(=O)OCC1=C(C(=O)O)N2C(=O)[C@@H](N)[C@H]2SC1` [Cephalosporanic acid, 7-amino] came in with a ThS net change of 378.

The molecule `O=C(O)CCCc1ccc(N(CCCl)CCCl)cc1` [Chlorambucil] had a ThS net change of 386.

Regarding `CN1C(=O)CCS(=O)(=O)C1c1ccc(Cl)cc1` (stereo not shown) [Chlormezanone], the ThS net change worked out at 389.

Still in this assay, the particulars now being: flag: p-tau aggregation inhibitor, ThS net change more than 3 SD from mean.
Regarding `COc1cc(-c2ccc(/N=N/c3ccc4c(S(=O)(=O)[O-])cc(S(=O)(=O)[O-])c(N)c4c3O)c(OC)c2)ccc1/N=N/c1ccc2c(S(=O)(=O)[O-])cc(S(=O)(=O)[O-])c(N)c2c1O.[Na+].[Na+].[Na+].[Na+]` [Chicago sky blue 6B], the “PTAI>3SD” value was “*”.

Turning to `Cc1cc(C2CCCCC2)n(O)c(=O)c1.NCCO` [Ciclopirox ethanolamine], the “PTAI>3SD” value was “*”.

Staying with this assay, now noted: library screen, ThS fluorescence net change over 16 h with p-tau.
For `COc1cc(-c2ccc(/N=N/c3ccc4c(S(=O)(=O)[O-])cc(S(=O)(=O)[O-])c(N)c4c3O)c(OC)c2)ccc1/N=N/c1ccc2c(S(=O)(=O)[O-])cc(S(=O)(=O)[O-])c(N)c2c1O.[Na+].[Na+].[Na+].[Na+]` [Chicago sky blue 6B], the ThS net change stood at 11.

On to `[H]/N=C(\N/C(=N/[H])NCCCCCCNC(=N)NC(=N)Nc1ccc(Cl)cc1)Nc1ccc(Cl)cc1` [Chlorhexidine], for which the ThS net change is recorded as 317.

`COc1ccc(C(Cl)=C(c2ccc(OC)cc2)c2ccc(OC)cc2)cc1` [Chlorotrianisene] registered a ThS net change of 235.

`Oc1c(Cl)cc(Cl)c2cccnc12` [Chloroxine] gave a ThS net change of 288.

The molecule `CN(C)CCCN1c2ccccc2Sc2ccc(Cl)cc21` [Chlorpromazine hydrochloride] gave a ThS net change of 317.

`CN(C)[C@@H]1C(O)=C(C(N)=O)C(=O)[C@@]2(O)C(O)=C3C(=O)c4c(O)ccc(Cl)c4[C@@](C)(O)[C@H]3C[C@@H]12` [Chlortetracycline hydrochloride] registered a ThS net change of 223.

In turn, `Cc1cc(C2CCCCC2)n(O)c(=O)c1.NCCO` [Ciclopirox ethanolamine] gave a ThS net change of 20.

Regarding `COCCOC(=O)C1=C(C)NC(C)=C(C(=O)OC/C=C/c2ccccc2)C1c1cccc([N+](=O)[O-])c1` (stereo not shown) [Cilnidipine], the ThS net change worked out at 230.

Regarding `CN1CCC[C@@H]1CCO[C@](C)(c1ccccc1)c1ccc(Cl)cc1` [Clemastine fumarate], the ThS net change was determined as 268.

As to `Cl.Clc1ccc(Cn2c(CN3CCCC3)nc3ccccc32)cc1` [Clemizole hydrochloride], the ThS net change was 325.

Staying with this assay, now noted: p-tau aggregation modulator screen of 1280-compound library; ThS fluorescence net change.
As for `CO/N=C(\C(=O)N[C@@H]1C(=O)N2C(C(=O)O)=C(COC(N)=O)CS[C@H]12)c1ccco1` [Cefuroxime sodium salt], the ThS net change came out at 365.

`O=C(N[C@H](CO)[C@H](O)c1ccc([N+](=O)[O-])cc1)C(Cl)Cl` [Chloramphenicol] returned a ThS net change of 344.

As to `CN1CCN(C(c2ccccc2)c2ccc(Cl)cc2)CC1` (stereo not shown) [Chlorcyclizine hydrochloride], the ThS net change is listed as 337.

In turn, `NS(=O)(=O)c1cc2c(cc1Cl)N=CNS2(=O)=O` [Chlorothiazide] returned a ThS net change of 359.

As for `CN/C(=N/CCSCc1nc[nH]c1C)NC#N` [Cimetidine], the ThS net change was 356.

`C(=C\c1ccccc1)/CN1CCN(C(c2ccccc2)c2ccccc2)CC1` [Cinnarizine] returned a ThS net change of 356.

`CN(C)CCCC1(c2ccc(F)cc2)OCc2cc(C#N)ccc21` (stereo not shown) [Citalopram Hydrobromide]: the ThS net change was determined as 351.

For `CCC[C@@H]1C[C@@H](C(=O)N[C@@H]([C@H]2O[C@H](SC)[C@H](O)[C@@H](O)[C@H]2O)[C@H](C)Cl)N(C)C1` [Clindamycin hydrochloride], the ThS net change turned out to be 344.

Staying with this assay, now noted: p-tau aggregation modulator screen of 1280-compound library; […].
With `CCN(CC)CCCC(C)Nc1ccnc2cc(Cl)ccc12` (stereo not shown) [Chloroquine diphosphate], the ThS net change stood at 338.

`CN(C)CCC(c1ccc(Cl)cc1)c1ccccn1` (stereo not shown) [Chlorpheniramine maleate] yielded a ThS net change of 354.

`CC(C)(C)NCC(O)c1cc(Cl)c(N)c(Cl)c1` (stereo not shown) [Clenbuterol hydrochloride] yielded a ThS net change of 349.

Staying with this assay, now noted: p-tau aggregation modulator screen of the compound library, ThS fluorescence net change.
`Cc1ccc(-c2cc(C(F)(F)F)nn2-c2ccc(S(N)(=O)=O)cc2)cc1` [Celecoxib] had a ThS net change of 429.

For the molecule `CC(=O)OCC1=C(C(=O)O)N2C(=O)[C@@H](NC(=O)Cc3cccs3)[C@H]2SC1` [Cephalothin sodium salt], the ThS net change was 446.

`CN(C)CCN(Cc1ccc(Cl)cc1)c1ccccn1.Cl` [Chloropyramine hydrochloride] came in with a ThS net change of 421.

Take `NC(=O)OCC(O)COc1ccc(Cl)cc1` (stereo not shown) [Chlorphensin carbamate]: the ThS net change is recorded as 516.

In turn, `CCCNC(=O)NS(=O)(=O)c1ccc(Cl)cc1` [Chlorpropamide] showed a ThS net change of 425.

`CCn1nc(C(=O)O)c(=O)c2cc3c(cc21)OCO3` [Cinoxacin] displayed a ThS net change of 431.

With `CC(C)(Oc1ccc(C2CC2(Cl)Cl)cc1)C(=O)O` (stereo not shown) [Ciprofibrate], the ThS net change came out at 448.

As to `COc1ccc(C[C@@H]2c3cc(OC)c(OC)cc3CC[N@+]2(C)CCC(=O)OCCCCCOC(=O)CC[N@@+]2(C)CCc3cc(OC)c(OC)cc3[C@H]2Cc2ccc(OC)c(OC)c2)cc1OC` [Cisatracurium besylate], the ThS net change came to 458.

`CC[C@H]1OC(=O)[C@H](C)[C@@H](O[C@H]2C[C@@](C)(OC)[C@@H](O)[C@H](C)O2)[C@H](C)[C@@H](O[C@@H]2O[C@H](C)C[C@H](N(C)C)[C@H]2O)[C@](C)(OC)C[C@@H](C)C(=O)[C@H](C)[C@@H](O)[C@]1(C)O` [Clarithromycin] displayed a ThS net change of 416.

Regarding `NC1CCN(c2c(F)cc3c(=O)c(C(=O)O)cn(C4CC4)c3c2Cl)C1` (stereo not shown) [Clinafloxacin], the ThS net change is 433.

(Values after PMC7539012, “Hyperphosphorylated tau aggregation and cytotoxicity modulators screen identified prescription drugs linked to Alzheimer's disease and cognitive functions” (Scientific Reports, 2020).)
